Laboratory results taken from patent US10745400B2, “Inhibition of BMP signaling, compounds, compositions and uses thereof” (Vanderbilt University, priority 2018, dated 2020).
Residue numbers refer to the chain shown, from its start.

Assays:
[1] = Intrinsic clearance, human; format: in vitro ADME; conditions: human
Protein binding, human = format: in vitro ADME
[2] = Intrinsic clearance, mouse; format: in vitro ADME; conditions: mouse
[3] = test system: BMP-responsive C2C12 mouse myoblast cells stimulated with BMP4; assay: BMP4 cell assay (Id1 promoter-firefly luciferase reporter); format: cell-based; conditions: Mus musculus, C2C12, C2C12 cells, BMP4 50 ng/mL, overnight
Protocol: The BMP4 cell assay were carried out briefly as follows. Stably transfected BMP-responsive C2C12 mouse myoblast cells (containing the Idl promoter-firefly luciferase reporter) were seeded in 96-well plates and incubated overnight with the compounds and BMP4 (50 ng/mL). The cells were then lysed, and cell extracts were then subjected to the firefly luciferase assay using Steady-Glo luciferase assay kit (Promega). The results were normalized to cell titers, as measured using Cell Titer-Glo luminescence assay (Promega). […] Relative activity was quantified by the ratio of firefly to Renilla luciferase activities using the dual luciferase assay kit (Promega).

Protein binding, mouse = format: in vitro ADME
ALK2/ACVR1 = target: T1, ALK2/ACVR1 (Homo sapiens, UniProt Q04771); assay: Kinase assay (33P-ATP filter-binding), ALK2; format: biochemical; conditions: 20 mM; read-out: Kinase Selectivity ALK2/ACVR1 (20 mM)
T1 sequence (Q04771 21-509): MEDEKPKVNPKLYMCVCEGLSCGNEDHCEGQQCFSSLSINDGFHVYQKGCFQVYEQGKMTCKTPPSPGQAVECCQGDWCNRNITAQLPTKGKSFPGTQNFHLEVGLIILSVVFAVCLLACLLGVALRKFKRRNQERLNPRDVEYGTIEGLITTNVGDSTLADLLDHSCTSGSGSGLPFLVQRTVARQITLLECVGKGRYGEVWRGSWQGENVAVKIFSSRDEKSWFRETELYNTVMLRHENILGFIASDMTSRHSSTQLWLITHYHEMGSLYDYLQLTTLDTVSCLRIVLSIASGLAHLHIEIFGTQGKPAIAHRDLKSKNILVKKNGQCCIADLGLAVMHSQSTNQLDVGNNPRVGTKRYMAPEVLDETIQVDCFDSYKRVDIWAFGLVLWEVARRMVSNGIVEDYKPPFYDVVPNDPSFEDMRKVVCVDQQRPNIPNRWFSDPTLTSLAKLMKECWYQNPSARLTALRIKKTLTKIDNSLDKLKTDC
Protocol: (§1) The kinase assays were carried out briefly as follows. Substrate was prepared in Base Reaction Buffer (20 mM Hepes (pH 7.5), 10 mM MgCl2, 1 mM EGTA, 0.02% Brij35, 0.02 mg/ml BSA, 0.1 mM Na3VO4, 2 mM DTT, 1% DMSO). The indicated kinases was delivered into the substrate solution and allowed to gently mix. Next, the specific compound was delivered in DMSO into the kinase mixture by Acoustic technology (Echo550; nanoliter range), and allowed to incubate for 20 minutes at room temperature. Next, ^33P-ATP was delivered into the reaction mixture to initiate the reaction and allowed to incubate at room temperature. After 2 hours, the reactions were spotted onto P81 ion exchange paper and the kinase activity is detected by the filter-binding method.

ALK2 (Q207D) = target: T2, ALK2 (Q207D) (Homo sapiens, UniProt Q04771, Q207D); assay: Kinase assay (33P-ATP filter-binding), ALK2 Q207D; format: biochemical; conditions: Q207D mutant, 20 mM; read-out: Kinase Selectivity ALK2 (Q207D, 20 mM)
T2 sequence (Q04771 21-509 Q207D): T1 sequence (Q04771 21-509) with Q187D
Protocol: as §1

ALK2 (R206H) = target: T3, ALK2 (R206H) (Homo sapiens, UniProt Q04771, R206H); assay: Kinase assay (33P-ATP filter-binding), ALK2 R206H; format: biochemical; conditions: R206H mutant, 20 mM; read-out: Kinase Selectivity ALK2 (R206H, 20 mM)
T3 sequence (Q04771 21-509 R206H): T1 sequence (Q04771 21-509) with R186H
Protocol: as §1

ALK3/BMPR1A = ALK3/BMPR1A (Homo sapiens, UniProt P36894); assay: Kinase assay (33P-ATP filter-binding), ALK3; format: biochemical; conditions: 1 mM; read-out: Kinase Selectivity ALK3/BMPR1A (1 mM)
Chain of ALK3/BMPR1A (P36894 24-532): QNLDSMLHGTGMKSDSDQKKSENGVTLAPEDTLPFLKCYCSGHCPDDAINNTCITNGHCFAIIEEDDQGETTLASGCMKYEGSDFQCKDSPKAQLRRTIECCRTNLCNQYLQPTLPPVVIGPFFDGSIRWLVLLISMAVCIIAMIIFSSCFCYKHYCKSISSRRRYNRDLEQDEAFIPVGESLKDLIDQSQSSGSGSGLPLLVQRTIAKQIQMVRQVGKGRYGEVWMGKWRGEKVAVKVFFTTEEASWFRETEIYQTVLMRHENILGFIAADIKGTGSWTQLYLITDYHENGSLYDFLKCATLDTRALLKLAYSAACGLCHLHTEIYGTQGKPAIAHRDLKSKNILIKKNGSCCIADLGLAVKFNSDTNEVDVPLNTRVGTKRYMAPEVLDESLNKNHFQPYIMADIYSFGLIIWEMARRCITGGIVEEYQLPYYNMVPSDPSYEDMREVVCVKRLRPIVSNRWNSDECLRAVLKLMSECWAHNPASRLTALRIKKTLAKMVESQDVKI
Protocol: as §1

ALK1/ACVRL1 = ALK1/ACVRL1 (Homo sapiens, UniProt P37023); assay: Kinase assay (33P-ATP filter-binding), ALK1; format: biochemical; conditions: read-out: Kinase Selectivity ALK1/ACVRL1
Chain of ALK1/ACVRL1 (P37023 22-503): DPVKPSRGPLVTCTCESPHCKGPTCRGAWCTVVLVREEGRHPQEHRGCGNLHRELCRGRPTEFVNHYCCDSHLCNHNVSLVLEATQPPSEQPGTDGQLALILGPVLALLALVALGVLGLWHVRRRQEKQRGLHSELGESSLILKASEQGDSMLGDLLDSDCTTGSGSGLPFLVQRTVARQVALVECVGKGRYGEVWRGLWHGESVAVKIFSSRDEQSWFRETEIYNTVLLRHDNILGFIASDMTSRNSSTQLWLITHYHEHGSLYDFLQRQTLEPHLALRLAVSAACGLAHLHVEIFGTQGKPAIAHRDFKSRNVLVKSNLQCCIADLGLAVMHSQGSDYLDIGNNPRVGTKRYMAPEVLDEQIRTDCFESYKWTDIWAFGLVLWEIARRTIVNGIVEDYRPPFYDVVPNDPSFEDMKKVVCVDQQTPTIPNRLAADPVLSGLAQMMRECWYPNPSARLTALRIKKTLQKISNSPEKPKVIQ
Protocol: as §1

[4] = CL-Hep, value in parentheses, read-out: Intrinsic Clearance Human (CL-Hep)
[5] = read-out: Intrinsic Clearance Human
[6] = CL-Hep, value in parentheses, read-out: Intrinsic Clearance Mouse (CL-Hep)
[7] = read-out: Intrinsic Clearance Mouse

SMILES	CLint scaled [1, 4] [L/h/kg]	CLint scaled [1, 5] [L/h/kg]	Protein Binding (% Free) Human (Protein binding, human) [% Free]	CLint scaled [2, 6] [L/h/kg]	CLint scaled [2, 7] [L/h/kg]	IC50 [3] [µM]	Protein Binding (% Free) Mouse (Protein binding, mouse) [% Free]	IC50 (ALK2/ACVR1) [µM]	IC50 (ALK2 (Q207D)) [µM]	IC50 (ALK2 (R206H)) [µM]	IC50 (ALK3/BMPR1A) [µM]	IC50 (ALK1/ACVRL1) [µM]
Cc1cc(-c2cnc3cc(-c4ccc(C5CNCCN5)cc4)ccn23)c2ccccc2n1 (stereo not drawn) [Compound 12]	< 0.642	< 1.39	13.6	< 1.98	< 2.97	0.0135	4.94					
Cc1cc(-c2cnc3cc(-c4ccc(N5CCC6(CCCCN6)CC5)cc4)ccn23)c2cc(F)cc(F)c2n1 [Compound 25]	0.84	2.78	1.43	5.87	11.9		0.55	0.0555	0.17	0.258	0.0547	0.777
Cc1cc(-c2cnc3cc(-c4ccc(N5CCNC(C)(C)C5)cc4)ccn23)c2cc(F)cc(F)c2n1 [Compound 26]	< 0.642	< 1.39	0.61	2.83	5.94		1.03	0.0149	0.0697	0.0793	0.0057	0.33
c1cnc2scc(-c3cnc4cc(-c5ccc(C6CNCCN6)cc5)ccn34)c2c1 (stereo not drawn) [Compound 31]	< 0.66	< 1.39	16.2	2.02	3.21		6.8	0.0201	< 0.0051	0.0206	0.0212	0.0307
c1cnc2c(-c3cnc4cc(-c5ccc(C6CNCCN6)cc5)ccn34)ccnc2c1 (stereo not drawn) [Compound 34]	0.738	1.78	39.4	< 1.91	< 2.97		21.2	0.0062	< 0.0051	0.0075	< 0.0051	0.0169
